Source: patent US6291640A, “Peptidomimetic inhibitors of the human cytomegalovirus protease” (Boehringer Ingelheim Ltd., priority 1998, dated 2001)
Starred links: 1 amine or outer side, 2 acyl side, 3 side chain; linkers in the order of their positions; H or OH if unused. Non-standard residues stand in square brackets, D forms with d. Residues, ends and D or L forms follow the SMILES beside them. ξ: configuration not given here. *: point of attachment. ξ3Amino2oxobutanoyl = CC(N[*:1])C(=O)C(=O)[*:2]; NHBn = c1ccc(CN*)cc1; ξNva = CCCC(N)C(=O)O; CF3 = FC(F)(F)*

Each molecule was assayed against T1, HCMV No protease (Human cytomegalovirus, UniProt P16753) (assay: biochemical). Conditions: not given.
T1 construct: at a position located near the center of the precursor (R-site) to excise the catalytic domain (No)
T1 sequence (P16753 1-256): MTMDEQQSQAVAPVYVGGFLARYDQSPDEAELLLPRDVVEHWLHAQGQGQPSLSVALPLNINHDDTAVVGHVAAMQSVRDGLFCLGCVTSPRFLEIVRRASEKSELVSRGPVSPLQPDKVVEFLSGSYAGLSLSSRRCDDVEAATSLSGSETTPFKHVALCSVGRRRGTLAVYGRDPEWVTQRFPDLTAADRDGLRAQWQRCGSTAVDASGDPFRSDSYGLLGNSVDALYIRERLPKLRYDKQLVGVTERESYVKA
Description: HCMV No protease assay: HCMV No protease was assayed with an internally quenched fluorogenic substrate based on the maturation cleavage site (Abz-[…](3-NO2)R-OH, kcat /KM =260 M^-1 s^-1) . […] A protocol adaptable to a 96-well plate format was designed for the determination of IC50 values of inhibitors. […] After this period, enzymatic hydrolysis was initiated by addition of the fluorogenic substrate and the reaction was performed for 2 hr at 30° C. […] No quenching was required before fluorescence measurement since the total scanning time by the plate reader accessory was brief relative to the duration of the reaction. The incubation buffer (essentially similar to the pre-incubation buffer) contained 50 mM Tris/HCl pH 8, 0.5M Na2 SO4, 50 mM NaCl, 0.1 mM EDTA, 1 mM TCEP, 3% v/v DMSO and 0.05% w/v Casein. The final concentrations of HCMV N, protease (expressed in terms of total monomer concentration) and substrate were 100 nM and 5 μM respectively. IC50 values were obtained through fitting of the inhibition curve to a competitive inhibition model using SAS NLIN procedure. The mode of inhibition was determined by measurements of the initial rates (in cuvettes) at various substrate (Abz-Tbg-Tbg-Asn(Me)2 -Ala-SSRLY(3-NO2)R-OH) and inhibitor concentrations using the same conditions as above.

Compound	IC50 [µM]
CC(NC(=O)[C@H](CC(=O)N(C)C)NC(=O)[C@@H](NC(=O)CC(C)(C)C)C(C)(C)C)P(=O)(Oc1ccccc1)Oc1ccccc1 (stereo partly drawn) [Compound 79, Diphenyl N4 ,N4-dimethyl-N1-(1-aminoethylphosphinate)-(2S)-2-{[(1S)-2,2-dirmethyl-1-(neopentylcarboxamido)propyl]carboxamido}butanediamide]	0.66 ± 0.06

Same assay, conditions: IC50 (μM)

Compound	IC50 [µM]
CC(=O)N[C@@H](CO)C(=O)N[C@@H](Cc1ccc(O)cc1)C(=O)N[C@H](C(=O)N[C@@H](CCCCN)C(=O)NC(C)C(=O)C(=O)NCc1ccccc1)C(C)C (stereo partly drawn) [Compound 218, Ac-Ser-Tyr-Val-Lys-Ala(d,l)-C(O)-NH-CH2 -Ph] (Ac-SYVK[ξ3Amino2oxobutanoyl]-NHBn)	9.4

Same assay, conditions: inhibitor pre-incubated 5 hr at 30° C. with enzyme, fluorogenic substrate; read-out: IC50

Compound	IC50 [µM]
CC(NC(=O)[C@H](CC(=O)N(C)C)NC(=O)[C@@H](NC(=O)CC(C)(C)C)C(C)(C)C)C(=O)C(=O)NC[C@@H](C)c1ccccc1 (some centres unmarked) [Compound 408]	0.2
CC[C@@H](NC(=O)C(=O)C(C)NC(=O)[C@H](CC(=O)N(C)C)NC(=O)[C@@H](NC(=O)[C@@H](NC(=O)CCCCCN)C(C)(C)C)C(C)(C)C)c1ccccc1 (some centres unmarked) [Compound 97]	0.073
CC[C@@H](NC(=O)C(=O)C(C)NC(=O)[C@H](CC(=O)N(C)C)NC(=O)[C@@H](NC(=O)[C@@H](NC(=O)CCCCCNC(=O)OC(C)(C)C)C(C)(C)C)C(C)(C)C)c1ccccc1 (some centres unmarked) [Compound 96]	0.057
CC(NC(=O)[C@H](CC(=O)N1CCCC1)NC(=O)[C@@H](NC(=O)CC(C)(C)C)C(C)(C)C)C(=O)C(=O)NCCOCc1ccccc1 (some centres unmarked) [Compound 305]	0.3
C=CCOC(=O)OCCNC(=O)C(=O)C(C)NC(=O)[C@H](CC(=O)N(C)C)NC(=O)[C@@H](NC(=O)CC(C)(C)C)C(C)(C)C (some centres unmarked) [Compound 401]	0.59
CC(NC(=O)[C@H](CCC(=O)N(C)C)NC(=O)[C@@H](NC(=O)CC(C)(C)C)C(C)(C)C)C(=O)C(F)(F)C(F)(F)F (some centres unmarked) [Compound 307]	2
CC(NC(=O)[C@H](CC(=O)N(C)C)NC(=O)[C@@H](NC(=O)[C@@H](NC(=O)OC(C)(C)C)C(C)C)C(C)C)C(=O)C(=O)NCC1CCCCC1 (some centres unmarked) [Compound 413]	4.4
CC(NC(=O)[C@@H](CC(=O)[C@@H](NC(=O)CC(C)(C)C)C(C)(C)C)CC(=O)C(C)(C)C)C(=O)C(F)(F)F (some centres unmarked) [Compound 311]	6.8
CC(NC(=O)[C@H](CC(=O)N(C)C)NC(=O)[C@@H](NC(=O)[C@@H](N)C(C)C)C(C)C)C(=O)C(=O)NCc1ccc(C(F)(F)F)cc1 (some centres unmarked) [Compound 404]	1.7
CC(NC(=O)[C@H](CC(=O)N(C)C)NC(=O)[C@@H](NC(=O)CC(C)(C)C)C(C)(C)C)C(=O)C(=O)NCc1ccc(C(=O)N2CCOCC2)cc1 (some centres unmarked) [Compound 405]	0.5
C[C@H](NC(=O)[C@H](CC(=O)N1CCCC1)NC(=O)[C@@H](NC(=O)CC(C)(C)C)C(C)(C)C)C(=O)c1nc2ccccc2o1 [Compound 304]	0.5
CC(NC(=O)[C@H](CC(=O)NC(C)(C)C)NC(=O)[C@@H](NC(=O)CC(C)(C)C)C(C)(C)C)C(=O)C(F)(F)C(F)(F)F (some centres unmarked) [Compound 306]	0.5
Cc1ccc2nc(C(=O)C(C)NC(=O)[C@H](CC(=O)N(C)C)NC(=O)[C@@H](NC(=O)CC(C)(C)C)C(C)(C)C)oc2c1 (stereo partly drawn) [Compound 82, N4,N4-dimethyl-N1-[1-methyl-2-(6-methyl-1,3-benzoxazol-2-yl)-2-oxoethyl]-(2S)-2-{[(1S)-2,2-dimethyl-1-(neopentylcarboxamido)propyl]carboxamido}butanediamide]	0.6 ± 0.1
CC(NC(=O)[C@H](CC(=O)N(C)C)NC(=O)[C@@H](NC(=O)[C@@H](NC(=O)OC(C)(C)C)C(C)C)C(C)C)C(=O)C(=O)NC1CCCCC1 (some centres unmarked) [Compound 411]	1.8
CC(NC(=O)[C@H](CC(=O)N(C)C)NC(=O)[C@@H](NC(=O)[C@@H](NC(=O)OC(C)(C)C)C(C)C)C(C)C)C(=O)C(=O)Nc1ccccc1 (some centres unmarked) [Compound 410]	1.5
CC[C@@H](NC(=O)C(=O)C(C)NC(=O)[C@H](CS(N)(=O)=O)NC(=O)[C@@H](NC(=O)CC(C)(C)C)C(C)(C)C)c1ccccc1 (some centres unmarked) [Compound 310]	0.97
CC(NC(=O)[C@H](CC(=O)N1CCCC1)NC(=O)[C@@H](NC(=O)CC(C)(C)C)C(C)(C)C)C(=O)C(=O)NCc1ccc(I)cc1 (some centres unmarked) [Compound 98]	0.34
CCCC(NC(=O)[C@H](CC(N)=O)NC(=O)[C@@H](NC(=O)[C@@H](NC(C)=O)C(C)C)C(C)C)C(=O)C(F)(F)F (some centres unmarked) [Compound 45] (Ac-VVN[ξNva]-CF3)	> 300
CC(NC(=O)[C@H](CC(=O)N(C)C)NC(=O)[C@@H](NC(=O)CC(C)(C)C)C(C)(C)C)C(=O)C(=O)N[C@H](C)c1cccc2ccccc12 (some centres unmarked) [Compound 407]	0.2
CC(NC(=O)[C@H](CC(=O)N(C)C)NC(=O)[C@@H](NC(=O)[C@@H](NC(=O)OC(C)(C)C)C(C)C)C(C)C)C(=O)C(=O)Nc1cccc(C(N)=O)c1 (some centres unmarked) [Compound 414]	1.6
CC(NC(=O)[C@@H](CC(=O)C(NC(=O)CC(C)(C)C)C(C)(C)C)CC(=O)N(C)C)C(=O)C(F)(F)C(F)(F)F (mixture of isomers) [Compound 312, N^4,N^4 -Dimethyl-N^1-[1-(R/ S)-methyl-2-oxo-3,3,4,4,4-pentafluorobutyl]-(2S)-2-{3-[(3,3-dimethyl-1-oxobutyl)-amino]-4,4-dimethyl-2-oxopentyl}-butanediamide]	5.8
Cc1ccc(NC(=O)C(=O)C(C)NC(=O)[C@H](CC(=O)N(C)C)NC(=O)[C@@H](NC(=O)[C@@H](NC(=O)OC(C)(C)C)C(C)C)C(C)C)cc1 (some centres unmarked) [Compound 409]	1.4
CC(NC(=O)[C@H](CC(=O)N1CCOCC1)NC(=O)[C@@H](NC(=O)CC(C)(C)C)C(C)(C)C)C(=O)C(F)(F)C(F)(F)F (some centres unmarked) [Compound 308]	0.3
CC[C@@H](NC(=O)C(=O)C(C)NC(=O)[C@H](CC(=O)N(C)CCc1ccccn1)NC(=O)[C@@H](NC(=O)CC(C)(C)C)C(C)(C)C)c1ccccc1 (some centres unmarked) [Compound 309]	0.12
CC(NC(=O)[C@H](CC(=O)N(C)C)NC(=O)[C@@H](NC(=O)[C@@H](NC(=O)OC(C)(C)C)C(C)C)C(C)C)C(=O)C(=O)NCCc1ccccc1 (some centres unmarked) [Compound 412]	0.85
CC(NC(=O)[C@H](CC(=O)N(C)C)NC(=O)[C@@H](NC(=O)[C@@H](NC(=O)OC(C)(C)C)C(C)C)C(C)C)C(=O)C(=O)NCC(C)(C)C (some centres unmarked) [Compound 402]	4.3
CCCCC[C@@H](C)NC(=O)C(=O)C(C)NC(=O)[C@H](CC(=O)N(C)C)NC(=O)[C@@H](NC(=O)CC(C)(C)C)C(C)(C)C (some centres unmarked) [Compound 406]	0.8

Same assay, conditions: relative to compound 96

Compound	improvement of potency (factor) on removal of the Boc group
CC[C@@H](NC(=O)C(=O)C(C)NC(=O)[C@H](CC(=O)N(C)C)NC(=O)[C@@H](NC(=O)[C@@H](NC(=O)CCCCCN)C(C)(C)C)C(C)(C)C)c1ccccc1 (some centres unmarked) [Compound 97]	2

Same assay, conditions: text of b731; read-out: IC50 value / potency

Compound	IC50 [µM]
CC[C@@H](NC(=O)C(=O)C(C)NC(=O)[C@H](CC(=O)N(C)C)NC(=O)[C@@H](NC(=O)[C@@H](NC(=O)CCCCCN)C(C)(C)C)C(C)(C)C)c1ccccc1 (some centres unmarked) [Compound 97]	< 0.04
CC[C@@H](NC(=O)C(=O)C(C)NC(=O)[C@H](CC(=O)N(C)C)NC(=O)[C@@H](NC(=O)[C@@H](NC(=O)CCCCCNC(=O)OC(C)(C)C)C(C)(C)C)C(C)(C)C)c1ccccc1 (some centres unmarked) [Compound 96]	0.075

The molecules below were run against T2, porcine pancreatic elastase (PPE) (Sus scrofa, UniProt P00772) (assay: Specificity assay, porcine pancreatic elastase). Conditions: not given.
T2 construct: porcine pancreas elastase #1027891 lot 83260521-23; purchased Boehringer Mannheim #1027891
T2 sequence (P00772 27-266): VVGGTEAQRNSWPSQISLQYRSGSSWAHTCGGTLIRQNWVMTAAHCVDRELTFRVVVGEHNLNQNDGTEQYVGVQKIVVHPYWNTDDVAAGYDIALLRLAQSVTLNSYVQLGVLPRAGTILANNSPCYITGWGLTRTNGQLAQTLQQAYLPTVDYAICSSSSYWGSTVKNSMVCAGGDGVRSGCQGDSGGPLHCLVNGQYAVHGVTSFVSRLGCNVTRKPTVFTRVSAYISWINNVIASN
Assay type: biochemical
Description: The specificity of the compounds was determined against a variety of serine proteases (Human leukocyte and porcine pancreatic elastases (HLE & PPE), bovine pancreas α-chymotrypsin) and one cysteine protease (Human liver cathepsin B). In all cases a 96-well plate format protocol using a calorimetric p-nitroanilide (pNA) substrate specific for each enzyme was used. Each assay included a 1 hr pre-incubation enzyme-inhibitor at 30° C. followed by addition of substrate and hydrolysis to ≈30% conversion as measured by scanning on a UV Thermomax microplate reader. Substrate concentrations were kept as low as possible compared to KM to reduce substrate competition. […] The final conditions for each assay were as followed: 50 mM Tris/HCl pH 8, 0.5 M Na2 SO4, 50 mM NaCl, 0.1 mM EDTA, 3% DMSO, 0.01% Tween-20 with [100 μM Succ-AAPF-pNA and 250 pM α-chymotrypsin], [133 μM Succ-AAA-pNA and 8 nM porcine elastase], or [133 μM Succ-AAV-pNA and 8 nM leukocyte elastase]. 100 mM NaH2 PO4 pH 6, 0.1 mM EDTA, 3% DMSO, 1 mM TCEP, 0.01% Tween-20, 30 μM Z-FR-pNA and 5 nM cathepsin B (the stock enzyme was activated in buffer containing 20 mM TCEP before use).

Compound	inhibition of PPE	potency against PPE relative to HCMV protease
CC(NC(=O)[C@H](CC(=O)N(C)C)NC(=O)[C@@H](NC(=O)CC(C)(C)C)C(C)(C)C)C(=O)c1nc2ncccc2o1 (stereo partly drawn) [Compound 81, N4,N4-dimethyl-N1-(1-methyl-2-[1,3]oxazolo[4,5-b]pyridin-2-yl-2-oxoethyl)-(2S)-2-{[(1S)-2,2-dimethyl-1-(neopentylcarboxamido)propyl]carboxamido} butanediamide]	not an inhibitor of PPE	
CC(NC(=O)[C@H](CC(=O)N(C)C)NC(=O)[C@@H](NC(=O)CC(C)(C)C)C(C)(C)C)C(=O)c1nc2ccccc2o1 (stereo partly drawn) [Compound 77, N1-[2-(1,3-benzoxazol-2-yl)-1-methyl-2-oxoethyl]-N4,N4-dimethyl-(2S)-2-{[(1S)-2,2-dimethyl-1-(neopentylcarboxamido)propyl]carboxamido}butanediamide]		seven fold more potent against PPE than against HCMV protease

Same assay, conditions: 1 hr pre-incubation at 30° C., Succ-AAA-pNA; read-out: IC50 against PPE

Compound	IC50 [nM]
CC(NC(=O)[C@H](CC(=O)N(C)C)NC(=O)[C@@H](NC(=O)CC(C)(C)C)C(C)(C)C)C(=O)c1nc2ccccc2s1 (stereo partly drawn) [Compound 80, N1-[2-(1,3-benzothiazol-2-yl)-1-methyl-2-oxoethyl]-N4,N4-dimethyl-(2S)-2-{[(1S)-2,2-di-methyl-1-(neopentylcarboxamido)propyl]carboxamido}butanediamide]	9000
